Measured values published in PubChem BioAssay (NCI).
Values joined by “and” are separate entries in the source; they are usually repeats but may differ in a detail not shown here. Equal entries are not always repeated.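 These data come from cells grown in 96-well plates and exposed to compound for 48 hours at five concentrations. The concentration for 50% growth inhibition is given as GI50. TGI marks complete inhibition of growth.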

Experiments:
Experiment in all cases: NCI anticancer screen, dose series, 48 h
ACHN renal = test system: ACHN renal
MDA-MB-231 breast = test system: MDA-MB-231 breast
SK-MEL-2 melanoma = test system: SK-MEL-2 melanoma
OVCAR-3 ovarian = test system: OVCAR-3 ovarian
MCF7 breast = test system: MCF7 breast
EKVX NSCLC = test system: EKVX NSCLC
A498 renal = test system: A498 renal
SK-OV-3 ovarian = test system: SK-OV-3 ovarian
OVCAR-4 ovarian = test system: OVCAR-4 ovarian
SF-295 CNS = test system: SF-295 CNS

Compound	GI50 (ACHN renal)	TGI (ACHN renal)	GI50 (MDA-MB-231 breast)	TGI (MDA-MB-231 breast)	GI50 (SK-MEL-2 melanoma)	TGI (SK-MEL-2 melanoma)	GI50 (OVCAR-3 ovarian)	TGI (OVCAR-3 ovarian)	GI50 (MCF7 breast)	TGI (MCF7 breast)	GI50 (EKVX NSCLC)	TGI (EKVX NSCLC)	GI50 (A498 renal)	TGI (A498 renal)	GI50 (SK-OV-3 ovarian)	TGI (SK-OV-3 ovarian)	GI50 (OVCAR-4 ovarian)	TGI (OVCAR-4 ovarian)	GI50 (SF-295 CNS)	TGI (SF-295 CNS)
CSc1nc(SC)c2cnn(-c3ccnc4cc(Cl)ccc34)c2n1	42 µM	> 86.8 µM	20 µM	67.4 µM	> 44.9 µM	> 72.8 µM	6.87 µM	> 31.2 µM	2.61 µM	> 41 µM	25.9 µM	70.5 µM	> 100 µM	> 100 µM	> 81.1 µM	> 100 µM	> 100 µM	> 100 µM	5.46 µM	> 100 µM
Cc1cccc2c1NC(=O)[C@@H](NC(=O)[C@H](CCC(F)(F)F)[C@H](CCC(F)(F)F)C(N)=O)N=C2c1cccc(F)c1	45.1 µM	> 100 µM	18.2 µM	59.1 µM	41.5 µM	> 100 µM	33.3 µM	> 100 µM	24.1 µM	> 100 µM	40.5 µM	> 100 µM	36.6 µM	> 100 µM	28.7 µM	91.3 µM	22.4 µM	61.9 µM	25.8 µM	> 100 µM
CCCC(c1cc(C(C)(C)C)c(O)cc1C)c1cc(C(C)(C)C)c(O)cc1C		7.4 µM		9.57 µM		7.22 µM		3.93 µM		4.85 µM		7.75 µM		4.51 µM		12.4 µM		19.4 µM		6.11 µM
CN1CCN(C(=O)OCc2nc3c(N4CCOCC4)nc(-c4ccccc4)nc3n2C)CC1	0.544 µM	1.77 µM	1.09 µM	2.37 µM	1.85 µM	3.69 µM	0.295 µM	1.16 µM	0.389 µM	2.11 µM	1.39 µM	2.94 µM	1.53 µM	2.91 µM	2.97 µM	9.13 µM	1.2 µM	2.65 µM	1.58 µM	2.96 µM
Nc1ncnc2occ(-c3ccc(NC(=O)Nc4cc(C(F)(F)F)ccc4F)cc3)c12	4.17 µM and 2.9 µM	18.8 µM and 16.4 µM	7.93 µM and 3.8 µM	23.1 µM and 12.4 µM	6.25 µM and 3.36 µM	12.3 µM and 8.36 µM	5.44 µM and 3.61 µM	12.1 µM and 9.52 µM	2.37 µM and 1.16 µM	17.7 µM and 12.6 µM	5.12 µM and 3.97 µM	16.6 µM and 13.2 µM	1.09 µM and 0.506 µM	6.14 µM and 2.69 µM	8.24 µM and 4.19 µM	25 µM and 12.6 µM	4.2 µM and 2.36 µM	17.1 µM and 14.6 µM	4.97 µM and 3.23 µM	16.3 µM and 9.43 µM
CN(CCNc1ccc(C(=N)N)cc1)c1ccc(C(=N)N)cc1	> 100 µM	> 100 µM	> 100 µM	> 100 µM	18 µM	> 100 µM	37.3 µM	> 100 µM	30.5 µM	> 100 µM	20 µM	> 100 µM	4.43 µM	44.7 µM	34.5 µM	> 100 µM	66 µM	> 100 µM	5.8 µM	60.2 µM
NNC(=S)N/N=C/c1ccccn1	1.71 µM	> 100 µM	0.699 µM	> 100 µM	2.86 µM	> 100 µM	3.02 µM	> 100 µM	2.99 µM	> 100 µM	4.5 µM	> 100 µM	1.82 µM	9.01 µM	2.89 µM	> 100 µM	1.67 µM	> 100 µM	3.06 µM	> 100 µM
Cc1ccc([I+]c2ccc(C)cc2)cc1	14.9 µM	> 100 µM	25.1 µM	> 100 µM	14.1 µM	94.4 µM	7.63 µM	> 100 µM	4.01 µM	> 100 µM	0.484 µM	42.5 µM	2.28 µM	> 100 µM	21.8 µM	> 100 µM	7.75 µM	> 100 µM	1.86 µM	8.74 µM
Cc1cc(C)c2c(=O)cc(-c3ccc(F)cc3)[nH]c2n1		> 100 µM		> 100 µM		> 100 µM	43.5 µM	> 100 µM		> 100 µM		> 100 µM		99.5 µM		> 100 µM		48.3 µM	50.1 µM	> 100 µM
CCOC(=O)Nc1ccc2c3c(cccc13)-c1ccccc1-2	9.73 µM	> 100 µM	2.58 µM	> 100 µM	> 100 µM	> 100 µM	2.72 µM	8.92 µM	1.64 µM	> 100 µM	2.18 µM	> 100 µM	4.68 µM	> 100 µM	9.18 µM	> 100 µM	> 100 µM	> 100 µM	2.82 µM	7.87 µM
CSc1nc(SC)c2c(C)cn(Cc3ccccc3)c2n1		> 100 µM		> 100 µM		> 100 µM		> 100 µM		> 100 µM		> 100 µM		> 100 µM		> 100 µM		> 100 µM		> 100 µM
O=C(/C=C/c1cccnc1)c1ccccc1	4.51 µM	17.1 µM	12.9 µM	28.3 µM	13.5 µM	27 µM	4.25 µM	15.7 µM	2.92 µM	12.4 µM	14.1 µM	27.7 µM	11.7 µM	23.9 µM	14.6 µM	27.9 µM	13 µM	26.5 µM	14.3 µM	29.3 µM
